Source: patent US10314308B2, “Microbiocidal benzoxaboroles” (SYNGENTA PARTICIPATIONS AG, priority 2015, dated 2019)

How the values were obtained:
Pythium Ultimum = assay: Pythium ultimum / liquid culture (seedling damping off); format: cell-based; conditions: Globisporangium ultimum, potato dextrose broth, 24° C., 2-3 days after application, read-out: disease control (inhibition of growth, photometrically)
[1] = test system: Monographella Nivalis(Microdochium Nivale); assay: Monographella nivalis (Microdochium nivale) / liquid culture (foot rot cereals); format: cell-based; conditions: PDB potato dextrose broth, 24° C., 4-5 days after application, read-out: disease control (inhibition of growth, photometrically)
Method: (§1) 14 Monographella Nivalis(Microdochium Nivale)/Liquid Culture (Foot Rot Cereals) Conidia of the fungus from cryogenic storage were directly mixed into nutrient broth (PDB potato dextrose broth). After placing a DMSO solution of test compound into a 96-well microtiter plate, the nutrient broth containing the fungal spores was added. The test plates were incubated at 24° C. and the inhibition of growth was determined photometrically 4-5 days after application.

Fusarium Culmorum = assay: microbe, parasite or virus in culture; format: cell-based; conditions: read-out: disease control (inhibition of growth, photometrically)
Plasmopara Viticola = assay: whole plant or invertebrate; format: in vivo; conditions: foliar, read-out: disease control
[2] = test system: Mycosphaerella Arachidis(Cercospora Arachidicola); assay: Mycosphaerella arachidis (Cercospora arachidicola) / liquid culture (early leaf spot); format: cell-based; conditions: PDB potato dextrose broth, 24° C., 4-5 days after application, read-out: disease control (inhibition of growth, photometrically)
Method: as §1, with “11 Mycosphaerella Arachidis(Cercospora Arachidicola)/Liquid” for “14 Monographella Nivalis(Microdochium Nivale)/Liquid”, “(Early Leaf Spot)” for “(Foot Rot Cereals)”

[3] = test system: Mycosphaerella Graminicola(Septoria Tritici); assay: Mycosphaerella graminicola (Septoria tritici) / liquid culture (Septoria blotch); format: cell-based; conditions: Zymoseptoria tritici, PDB potato dextrose broth, 24° C., 4-5 days after application, read-out: disease control (inhibition of growth, photometrically)
Method: as §1, with “12 Mycosphaerella Graminicola(Septoria Tritici)/Liquid” for “14 Monographella Nivalis(Microdochium Nivale)/Liquid”, “(Septoria Blotch)” for “(Foot Rot Cereals)”

Gaeumannomyces Graminis = assay: Gaeumannomyces graminis / liquid culture (take-all of cereals); format: cell-based; conditions: PDB potato dextrose broth, 24° C., 4-5 days after application, read-out: disease control (inhibition of growth, photometrically)
Method: 13 Gaeumannomyces Graminis/Liquid Culture (Take-all of Cereals) Mycelial fragments of the fungus from cryogenic storage were directly mixed into nutrient broth (PDB potato dextrose broth). After placing a DMSO solution of test compound into a 96-well microtiter plate, the nutrient broth containing the fungal spores is added. The test plates were incubated at 24° C. and the inhibition of growth was determined photometrically 4-5 days after application.

Sclerotinia Sclerotiorum = assay: Sclerotinia sclerotiorum / liquid culture (cottony rot); format: cell-based; conditions: PDB potato dextrose broth, 24° C., 3-4 days after application, read-out: disease control (inhibition of growth, visually)
Method: 17 Sclerotinia Sclerotiorum/Liquid Culture (Cottony Rot) Mycelia fragments of a newly grown liquid culture of the fungus were directly mixed into nutrient broth (PDB potato dextrose broth). After placing a (DMSO) solution of the test compounds into a microtiter plate (96-well format) the nutrient broth containing the fungal material was added. The test plates were incubated at 24° C. and the inhibition of growth was determined visually 3-4 days after application.

[4] = test system: Glomerella Lagenarium(Colletotrichum Ladenarium); assay: Glomerella lagenarium (Colletotrichum lagenarium) / liquid culture (anthracnose); format: cell-based; conditions: PDB potato dextrose broth, 24° C., 3-4 days after application, read-out: disease control (inhibition of growth, photometrically)
Method: as §1, with “10 Glomerella Lagenarium(Colletotrichum Ladenarium)/Liquid” for “14 Monographella Nivalis(Microdochium Nivale)/Liquid”, “(Anthracnose)” for “(Foot Rot Cereals)”, “measured” for “determined”, “3-4” for “4-5”

[5] = test system: Botryotinia Fuckeliana(Botrytis Cinerea); assay: Botryotinia fuckeliana (Botrytis cinerea) / liquid culture (gray mould); format: cell-based; conditions: Vogels broth, 24° C., 3-4 days after application, read-out: disease control (inhibition of growth, photometrically)
Method: as §1, with “9 Botryotinia Fuckeliana(Botrytis Cinerea)/Liquid” for “14 Monographella Nivalis(Microdochium Nivale)/Liquid”, “(Gray Mould)” for “(Foot Rot Cereals)”, “(Vogels” for “(PDB potato dextrose”, “3-4” for “4-5”

CSc1ncc(-c2cc3c(cc2Cl)COB3O)c(C)n1 [Compound 20]
≥ 80%: inhibition at 20 ppm (Pythium Ultimum) | inhibition at 20 ppm [1] | inhibition at 20 ppm (Fusarium Culmorum)

Cc1nn(C)c(C)c1-c1cc2c(cc1F)COB2O [Compound 55]
≥ 80%: pest or weed control at 200 ppm (Plasmopara Viticola) | inhibition at 20 ppm (Pythium Ultimum)

OB1OCc2cc(F)c(-c3cc4ccccc4[nH]3)cc21 [Compound 61]
≥ 80%: pest or weed control at 200 ppm (Plasmopara Viticola) | inhibition at 20 ppm (Pythium Ultimum) | inhibition at 20 ppm [2] | inhibition at 20 ppm [3] | inhibition at 20 ppm (Gaeumannomyces Graminis) | inhibition at 20 ppm [1] | inhibition at 20 ppm (Sclerotinia Sclerotiorum)

OB1OCc2cc(F)c(-c3cnccc3C(F)(F)F)cc21 [Compound 78]
≥ 80%: pest or weed control at 200 ppm (Plasmopara Viticola) | inhibition at 20 ppm (Pythium Ultimum)

COc1ccc(-c2cc3c(cc2Cl)COB3O)cn1 [Compound 85]
≥ 80%: inhibition at 20 ppm (Pythium Ultimum) | inhibition at 20 ppm [1]

Cc1nc(Nc2ccccc2)nc(C2CC2)c1-c1cc2c(cc1Cl)COB2O [Compound 24]
≥ 80%: inhibition at 20 ppm [1]

OB1OCc2cc(Cl)c(-c3cncnc3O)cc21 [Compound 19]
≥ 80%: inhibition at 20 ppm (Pythium Ultimum)

OB1OCc2cc(Cl)c(-c3ccncc3Cl)cc21 [Compound 89]
≥ 80%: pest or weed control at 200 ppm (Plasmopara Viticola) | inhibition at 20 ppm (Pythium Ultimum) | inhibition at 20 ppm [4] | inhibition at 20 ppm [2] | inhibition at 20 ppm [3] | inhibition at 20 ppm [1]

OB1OCc2cc(Cl)c(-c3cc4ccccc4s3)cc21 [Compound 47]
≥ 80%: pest or weed control at 200 ppm (Plasmopara Viticola) | inhibition at 20 ppm (Pythium Ultimum) | inhibition at 20 ppm [2] | inhibition at 20 ppm [3] | inhibition at 20 ppm (Gaeumannomyces Graminis) | inhibition at 20 ppm [1]

OB1OCc2cc(Cl)c(-c3cnccc3C(F)(F)F)cc21 [Compound 87]
≥ 80%: pest or weed control at 200 ppm (Plasmopara Viticola) | inhibition at 20 ppm (Pythium Ultimum) | inhibition at 20 ppm [1]

O=Cc1csc(-c2cc3c(cc2Cl)COB3O)c1 [Compound 34]
≥ 80%: inhibition at 20 ppm (Pythium Ultimum) | inhibition at 20 ppm [4] | inhibition at 20 ppm [2] | inhibition at 20 ppm [3] | inhibition at 20 ppm (Gaeumannomyces Graminis) | inhibition at 20 ppm [1] | inhibition at 20 ppm (Fusarium Culmorum)

Cn1nccc1-c1cc2c(cc1F)COB2O [Compound 10]
≥ 80%: inhibition at 20 ppm (Pythium Ultimum) | inhibition at 20 ppm [5] | inhibition at 20 ppm [4] | inhibition at 20 ppm [2] | inhibition at 20 ppm [3] | inhibition at 20 ppm (Fusarium Culmorum) | inhibition at 20 ppm (Sclerotinia Sclerotiorum)

OB1OCc2cc(Cl)c(-c3cnco3)cc21 [Compound 18]
≥ 80%: inhibition at 20 ppm (Pythium Ultimum) | inhibition at 20 ppm [4] | inhibition at 20 ppm [2] | inhibition at 20 ppm [3] | inhibition at 20 ppm (Gaeumannomyces Graminis) | inhibition at 20 ppm [1] | inhibition at 20 ppm (Fusarium Culmorum) | inhibition at 20 ppm (Sclerotinia Sclerotiorum)

COc1ncc(-c2cc3c(cc2F)COB3O)c(OC)n1 [Compound 58]
≥ 80%: inhibition at 20 ppm (Pythium Ultimum) | inhibition at 20 ppm [1]

COc1ccc(-c2cc3c(cc2F)COB3O)cn1 [Compound 76]
≥ 80%: inhibition at 20 ppm (Pythium Ultimum) | inhibition at 20 ppm [1]

CCn1cc(-c2cc3c(cc2Cl)COB3O)cn1 [Compound 71]
≥ 80%: pest or weed control at 200 ppm (Plasmopara Viticola) | inhibition at 20 ppm (Pythium Ultimum) | inhibition at 20 ppm [2] | inhibition at 20 ppm [1]

OB1OCc2cc(F)c(-c3cncc(C(F)(F)F)c3)cc21 [Compound 82]
≥ 80%: inhibition at 20 ppm (Pythium Ultimum) | inhibition at 20 ppm [4] | inhibition at 20 ppm [2] | inhibition at 20 ppm [3] | inhibition at 20 ppm (Gaeumannomyces Graminis) | inhibition at 20 ppm [1] | inhibition at 20 ppm (Sclerotinia Sclerotiorum)

Cn1nc(-c2cc3c(cc2F)COB3O)c2ccccc21 [Compound 48]
≥ 80%: pest or weed control at 200 ppm (Plasmopara Viticola) | inhibition at 20 ppm (Pythium Ultimum) | inhibition at 20 ppm (Gaeumannomyces Graminis) | inhibition at 20 ppm [1]

COc1ncc(-c2cc3c(cc2Cl)COB3O)c(OC)n1 [Compound 69]
≥ 80%: inhibition at 20 ppm (Pythium Ultimum)

N#Cc1csc(-c2cc3c(cc2Cl)COB3O)c1 [Compound 43]
≥ 80%: pest or weed control at 200 ppm (Plasmopara Viticola) | inhibition at 20 ppm (Pythium Ultimum) | inhibition at 20 ppm [4] | inhibition at 20 ppm (Gaeumannomyces Graminis) | inhibition at 20 ppm [1]

OB1OCc2cc(Cl)c(-c3cc4ccccc4o3)cc21 [Compound 37]
≥ 80%: pest or weed control at 200 ppm (Plasmopara Viticola) | inhibition at 20 ppm [4] | inhibition at 20 ppm (Gaeumannomyces Graminis) | inhibition at 20 ppm [1]

OB1OCc2cc(F)c(-c3ccc(N4CCOCC4)nc3)cc21 [Compound 59]
≥ 80%: inhibition at 20 ppm (Pythium Ultimum)

OB1OCc2cc(Cl)c(-c3ccc(N4CCOCC4)nc3)cc21 [Compound 70]
≥ 80%: inhibition at 20 ppm (Pythium Ultimum) | inhibition at 20 ppm [2] | inhibition at 20 ppm [3] | inhibition at 20 ppm [1]

Cn1nccc1-c1cc2c(cc1Cl)COB2O [Compound 9]
≥ 80%: pest or weed control at 200 ppm (Plasmopara Viticola) | inhibition at 20 ppm (Pythium Ultimum)

CCn1cc(-c2cc3c(cc2F)COB3O)cn1 [Compound 60]
≥ 80%: pest or weed control at 200 ppm (Plasmopara Viticola) | inhibition at 20 ppm (Pythium Ultimum) | inhibition at 20 ppm [4] | inhibition at 20 ppm [2] | inhibition at 20 ppm (Gaeumannomyces Graminis) | inhibition at 20 ppm [1]

OB1OCc2cc(Cl)c(-c3cc(Br)cs3)cc21 [Compound 46]
≥ 80%: inhibition at 20 ppm (Pythium Ultimum) | inhibition at 20 ppm [4] | inhibition at 20 ppm [3] | inhibition at 20 ppm (Gaeumannomyces Graminis) | inhibition at 20 ppm [1]

OB1OCc2cc(Cl)c(-c3ccncc3)cc21 [Compound 7]
≥ 80%: pest or weed control at 200 ppm (Plasmopara Viticola) | inhibition at 20 ppm (Pythium Ultimum)

CON=Cc1ccc(-c2cc3c(cc2Cl)COB3O)o1 (racemic) [Compound 23, 1-[5-(5-chloro-1-hydroxy-3H-2,1-benzoxaborol-6-yl)-2-furyl]-N-methoxy-methanimine]
≥ 80%: inhibition at 20 ppm (Pythium Ultimum) | inhibition at 20 ppm [4] | inhibition at 20 ppm [2] | inhibition at 20 ppm [3] | inhibition at 20 ppm (Gaeumannomyces Graminis) | inhibition at 20 ppm [1]

CCOc1ccc(-c2cc3c(cc2F)COB3O)cn1 [Compound 64]
≥ 80%: pest or weed control at 200 ppm (Plasmopara Viticola) | inhibition at 20 ppm (Pythium Ultimum) | inhibition at 20 ppm [1]

Cn1cc(-c2cc3c(cc2Cl)COB3O)cn1 [Compound 86]
≥ 80%: inhibition at 20 ppm (Pythium Ultimum) | inhibition at 20 ppm [2] | inhibition at 20 ppm (Gaeumannomyces Graminis) | inhibition at 20 ppm [1]

N#Cc1ccc(-c2cc3c(cc2Cl)COB3O)o1 [Compound 41]
≥ 80%: pest or weed control at 200 ppm (Plasmopara Viticola) | inhibition at 20 ppm (Pythium Ultimum) | inhibition at 20 ppm [4] | inhibition at 20 ppm [3] | inhibition at 20 ppm (Gaeumannomyces Graminis) | inhibition at 20 ppm [1]

O=Cc1ccc(-c2cc3c(cc2F)COB3O)o1 [Compound 26]
≥ 80%: inhibition at 20 ppm (Pythium Ultimum) | inhibition at 20 ppm [5] | inhibition at 20 ppm [4] | inhibition at 20 ppm [2] | inhibition at 20 ppm [3] | inhibition at 20 ppm [1] | inhibition at 20 ppm (Fusarium Culmorum) | inhibition at 20 ppm (Sclerotinia Sclerotiorum)

Cn1cc(-c2cc3c(cc2F)COB3O)cn1 [Compound 77]
≥ 80%: inhibition at 20 ppm (Pythium Ultimum) | inhibition at 20 ppm [2] | inhibition at 20 ppm (Gaeumannomyces Graminis)

Cc1cscc1-c1cc2c(cc1Cl)COB2O [Compound 53]
≥ 80%: inhibition at 20 ppm (Pythium Ultimum) | inhibition at 20 ppm [4] | inhibition at 20 ppm [2] | inhibition at 20 ppm (Gaeumannomyces Graminis) | inhibition at 20 ppm [1]

Cc1cc(-c2cc3c(cc2F)COB3O)c(C)s1 [Compound 80]
≥ 80%: inhibition at 20 ppm (Pythium Ultimum) | inhibition at 20 ppm [4] | inhibition at 20 ppm [2] | inhibition at 20 ppm [1]
